Reference: the NIST ThermoML archive (doi:10.1007/s10765-012-1383-x)
Numbers after ± are expanded uncertainties.

Details: Fluid (supercritical or subcritical phases), Bellows volumetry

In the case of `CCCC` [butane], the mass density (360 K, 50000 kPa) is reported as 585.47 ± 0.88 kg/m3, the mass density (360 K, 60000 kPa) is reported as 595.41 ± 0.88 kg/m3 and the mass density (360 K, 70000 kPa) is reported as 604.19 ± 0.88 kg/m3. The mass density (360 K, 80000 kPa) was 612.02 ± 0.88 kg/m3, the mass density (360 K, 90000 kPa) was 619.58 ± 0.88 kg/m3 and the mass density (360 K, 100000 kPa) was 626.29 ± 0.76 kg/m3. The mass density (360 K, 120000 kPa) was 638.57 ± 0.76 kg/m3, the mass density (360 K, 140000 kPa) was 649.66 ± 0.76 kg/m3 and the mass density (360 K, 160000 kPa) was 659.24 ± 0.76 kg/m3. It also gave a mass density (360 K, 180000 kPa) of 668.57 ± 0.76 kg/m3, a mass density (360 K, 200000 kPa) of 676.57 ± 0.76 kg/m3 and a mass density (400 K, 50000 kPa) of 556.11 ± 0.88 kg/m3. For the same molecule, the mass density (400 K, 60000 kPa) was 567.8 ± 0.88 kg/m3, the mass density (400 K, 70000 kPa) was 578.11 ± 0.88 kg/m3 and the mass density (400 K, 80000 kPa) was 587.28 ± 0.88 kg/m3. It also gave a mass density (400 K, 90000 kPa) of 595.58 ± 0.88 kg/m3, a mass density (400 K, 100000 kPa) of 603.28 ± 0.76 kg/m3 and a mass density (400 K, 120000 kPa) of 617 ± 0.76 kg/m3. For the same molecule, the mass density (400 K, 140000 kPa) was 629.05 ± 0.76 kg/m3, the mass density (400 K, 160000 kPa) was 639.75 ± 0.76 kg/m3 and the mass density (400 K, 180000 kPa) was 649.69 ± 0.76 kg/m3. The mass density (400 K, 200000 kPa) was 658.6 ± 0.76 kg/m3, the mass density (440 K, 50000 kPa) was 527.49 ± 0.76 kg/m3 and the mass density (440 K, 60000 kPa) was 541.19 ± 0.76 kg/m3. For the same molecule, the mass density (440 K, 70000 kPa) was 552.99 ± 0.76 kg/m3, the mass density (440 K, 80000 kPa) was 563.51 ± 0.76 kg/m3 and the mass density (440 K, 90000 kPa) was 572.93 ± 0.76 kg/m3. It also gave a mass density (440 K, 100000 kPa) of 581.43 ± 2.9 kg/m3, a mass density (440 K, 120000 kPa) of 596.67 ± 2.9 kg/m3 and a mass density (440 K, 140000 kPa) of 609.84 ± 2.9 kg/m3. For the same molecule, the mass density (440 K, 160000 kPa) was 621.49 ± 2.9 kg/m3, the mass density (440 K, 180000 kPa) was 632.12 ± 2.9 kg/m3 and the mass density (440 K, 200000 kPa) was 641.85 ± 2.9 kg/m3. It also gave a mass density (500 K, 50000 kPa) of 485.76 ± 0.76 kg/m3, a mass density (500 K, 60000 kPa) of 502.86 ± 0.76 kg/m3 and a mass density (500 K, 70000 kPa) of 517.01 ± 0.76 kg/m3. It also gave a mass density (500 K, 80000 kPa) of 529.24 ± 0.76 kg/m3, a mass density (500 K, 90000 kPa) of 540.26 ± 0.76 kg/m3 and a mass density (500 K, 100000 kPa) of 550.18 ± 2.9 kg/m3. It also gave a mass density (500 K, 120000 kPa) of 567.64 ± 2.9 kg/m3, a mass density (500 K, 140000 kPa) of 582.51 ± 2.9 kg/m3 and a mass density (500 K, 160000 kPa) of 595.57 ± 2.9 kg/m3. The mass density (500 K, 180000 kPa) was 607.21 ± 2.9 kg/m3, the mass density (500 K, 200000 kPa) was 617.68 ± 2.9 kg/m3 and the mass density (550 K, 50000 kPa) was 452.74 ± 0.76 kg/m3. It also gave a mass density (550 K, 60000 kPa) of 472.65 ± 0.76 kg/m3, a mass density (550 K, 70000 kPa) of 489.04 ± 0.76 kg/m3 and a mass density (550 K, 80000 kPa) of 503.05 ± 0.76 kg/m3. For the same molecule, the mass density (550 K, 90000 kPa) was 515.43 ± 0.76 kg/m3, the mass density (550 K, 100000 kPa) was 526.47 ± 2.9 kg/m3 and the mass density (550 K, 120000 kPa) was 545.49 ± 2.9 kg/m3. For the same molecule, the mass density (550 K, 140000 kPa) was 561.8 ± 2.9 kg/m3, the mass density (550 K, 160000 kPa) was 575.61 ± 2.9 kg/m3 and the mass density (550 K, 180000 kPa) was 588.11 ± 2.9 kg/m3. For the same molecule, the mass density (550 K, 200000 kPa) was 599.35 ± 2.9 kg/m3, the mass density (600 K, 50000 kPa) was 421.67 ± 0.76 kg/m3 and the mass density (600 K, 60000 kPa) was 444.04 ± 0.76 kg/m3. The mass density (600 K, 70000 kPa) was 462.25 ± 0.76 kg/m3, the mass density (600 K, 80000 kPa) was 477.92 ± 0.76 kg/m3 and the mass density (600 K, 90000 kPa) was 491.53 ± 0.76 kg/m3. It also gave a mass density (600 K, 100000 kPa) of 503.41 ± 2.9 kg/m3, a mass density (600 K, 120000 kPa) of 524.18 ± 2.9 kg/m3 and a mass density (600 K, 140000 kPa) of 541.56 ± 2.9 kg/m3. The mass density (600 K, 160000 kPa) was 556.81 ± 2.9 kg/m3, the mass density (600 K, 180000 kPa) was 570.23 ± 2.9 kg/m3 and the mass density (600 K, 200000 kPa) was 582.23 ± 2.9 kg/m3.

Work on `CCC` [propane] yielded a mass density (360 K, 50000 kPa) of 520.66 ± 0.88 kg/m3, a mass density (360 K, 60000 kPa) of 532.63 ± 0.88 kg/m3 and a mass density (360 K, 70000 kPa) of 543.15 ± 0.88 kg/m3. The mass density (360 K, 80000 kPa) was 552.56 ± 0.88 kg/m3, the mass density (360 K, 90000 kPa) was 560.92 ± 0.88 kg/m3 and the mass density (360 K, 100000 kPa) was 568.67 ± 0.76 kg/m3. The mass density (360 K, 120000 kPa) was 582.46 ± 0.76 kg/m3, the mass density (360 K, 140000 kPa) was 594.1 ± 0.76 kg/m3 and the mass density (360 K, 160000 kPa) was 605.2 ± 0.76 kg/m3. For the same molecule, the mass density (360 K, 180000 kPa) was 614.83 ± 0.76 kg/m3, the mass density (360 K, 200000 kPa) was 624.04 ± 0.76 kg/m3 and the mass density (400 K, 50000 kPa) was 488.73 ± 0.88 kg/m3. For the same molecule, the mass density (400 K, 60000 kPa) was 503.01 ± 0.88 kg/m3, the mass density (400 K, 70000 kPa) was 515.19 ± 0.88 kg/m3 and the mass density (400 K, 80000 kPa) was 525.98 ± 0.88 kg/m3. The mass density (400 K, 90000 kPa) was 535.66 ± 0.88 kg/m3, the mass density (400 K, 100000 kPa) was 544.28 ± 0.76 kg/m3 and the mass density (400 K, 120000 kPa) was 559.78 ± 0.76 kg/m3. The mass density (400 K, 140000 kPa) was 573.12 ± 0.76 kg/m3, the mass density (400 K, 160000 kPa) was 584.9 ± 0.76 kg/m3 and the mass density (400 K, 180000 kPa) was 595.54 ± 0.76 kg/m3. The mass density (400 K, 200000 kPa) was 605.48 ± 0.76 kg/m3, the mass density (440 K, 50000 kPa) was 457.63 ± 0.76 kg/m3 and the mass density (440 K, 60000 kPa) was 474.47 ± 0.76 kg/m3. For the same molecule, the mass density (440 K, 70000 kPa) was 488.72 ± 0.76 kg/m3, the mass density (440 K, 80000 kPa) was 500.95 ± 0.76 kg/m3 and the mass density (440 K, 90000 kPa) was 511.84 ± 0.76 kg/m3. For the same molecule, the mass density (440 K, 100000 kPa) was 521.48 ± 2.9 kg/m3, the mass density (440 K, 120000 kPa) was 538.35 ± 2.9 kg/m3 and the mass density (440 K, 140000 kPa) was 552.91 ± 2.9 kg/m3. The mass density (440 K, 160000 kPa) was 565.72 ± 2.9 kg/m3, the mass density (440 K, 180000 kPa) was 577.17 ± 2.9 kg/m3 and the mass density (440 K, 200000 kPa) was 587.69 ± 2.9 kg/m3. For the same molecule, the mass density (500 K, 50000 kPa) was 413.41 ± 0.76 kg/m3, the mass density (500 K, 60000 kPa) was 434.04 ± 0.76 kg/m3 and the mass density (500 K, 70000 kPa) was 450.94 ± 0.76 kg/m3. It also gave a mass density (500 K, 80000 kPa) of 465.53 ± 0.76 kg/m3, a mass density (500 K, 90000 kPa) of 477.92 ± 0.76 kg/m3 and a mass density (500 K, 100000 kPa) of 489.12 ± 2.9 kg/m3. It also gave a mass density (500 K, 120000 kPa) of 508.54 ± 2.9 kg/m3, a mass density (500 K, 140000 kPa) of 524.91 ± 2.9 kg/m3 and a mass density (500 K, 160000 kPa) of 539.2 ± 2.9 kg/m3. For the same molecule, the mass density (500 K, 180000 kPa) was 551.84 ± 2.9 kg/m3, the mass density (500 K, 200000 kPa) was 563.13 ± 2.9 kg/m3 and the mass density (550 K, 50000 kPa) was 380.04 ± 0.76 kg/m3. For the same molecule, the mass density (550 K, 60000 kPa) was 403.51 ± 0.76 kg/m3, the mass density (550 K, 70000 kPa) was 422.59 ± 0.76 kg/m3 and the mass density (550 K, 80000 kPa) was 438.76 ± 0.76 kg/m3. It also gave a mass density (550 K, 90000 kPa) of 452.84 ± 0.76 kg/m3, a mass density (550 K, 100000 kPa) of 464.72 ± 2.9 kg/m3 and a mass density (550 K, 120000 kPa) of 485.88 ± 2.9 kg/m3. The mass density (550 K, 140000 kPa) was 503.64 ± 2.9 kg/m3, the mass density (550 K, 160000 kPa) was 518.92 ± 2.9 kg/m3 and the mass density (550 K, 180000 kPa) was 532.53 ± 2.9 kg/m3. For the same molecule, the mass density (550 K, 200000 kPa) was 544.69 ± 2.9 kg/m3, the mass density (600 K, 50000 kPa) was 349.68 ± 0.76 kg/m3 and the mass density (600 K, 60000 kPa) was 375.39 ± 0.76 kg/m3. It also gave a mass density (600 K, 70000 kPa) of 396.1 ± 0.76 kg/m3, a mass density (600 K, 80000 kPa) of 413.71 ± 0.76 kg/m3 and a mass density (600 K, 90000 kPa) of 428.88 ± 0.76 kg/m3. For the same molecule, the mass density (600 K, 100000 kPa) was 442.26 ± 2.9 kg/m3, the mass density (600 K, 120000 kPa) was 465.07 ± 2.9 kg/m3 and the mass density (600 K, 140000 kPa) was 484.26 ± 2.9 kg/m3. The mass density (600 K, 160000 kPa) was 500.33 ± 2.9 kg/m3, the mass density (600 K, 180000 kPa) was 514.78 ± 2.9 kg/m3 and the mass density (600 K, 200000 kPa) was 527.68 ± 2.9 kg/m3.
